{
  "source": "patent US20240173333A1",
  "about": "“Treating Alagille Syndrome (ALGS)” (priority 2022, published 2024)",
  "key": {"[1]": {"system": "patients with Alagille syndrome (ALGS)", "test": "ASSERT: hepatic parameters, biochemical markers and markers of bile acid synthesis", "assay_type": "in vivo, human", "excerpt": "[…] Additional secondary efficacy endpoints were as follows: • Change from baseline in pruritus to Month 6 (Weeks 21 to 24) as measured by the Albireo PRO instrument. • Percentage of patients achieving a clinically meaningful decrease in pruritus (pruritis responders) as measured by the ObsRO/PRO instruments. • Change from baseline through Week 24 in patient reported and observer reported itching and scratching severity scores, respectively, for the morning assessment and for the evening assessment; sleep parameters as measured with the Albireo ObsRO/PRO instruments (e.g., tiredness and number of awakenings); and PedsQL subdomain scores. • Assessment of Global Symptom Relief to from baseline to Weeks 4, 12, and 24 as measured by patient, caregiver, and clinician Global Impression of Symptoms GIS (PGIS, CaGIS, CGIS) items. • Change from baseline to Week 24 in xanthomatosis as assessed by the Clinician Xanthoma Scale; serum bile acid levels; serum ALT concentration; and serum AST concentration; gamma-glutamyl transferase concentration; total bilirubin concentration. • Change from baseline in biochemical markers and measures of bile acid synthesis (autotaxin, p-C4, only in patients >10 kg); and total cholesterol concentration.\nBiochemical Markers and PK Samples. Blood samples for analysis of clinical chemistry were drawn during Screening Visits 1 and 2, as well as at randomization (Study Day 1), Week 4 to 24/EOT, and Safety Follow-up visits. As outlined in Table 1, total bilirubin, AST, ALT, and gamma glutamyl transferase assessments were included as part of the routine laboratory parameters. Blood samples for autotaxin and p-C4 were drawn at randomization (Study Day 1), Week 12, and Week 24/EOT, only for children with body weight >10 kg. Blood for odevixibat PK assessment was drawn at Week 4, Week 20, and EOT (only for children with body weight >10 kg). Samples were processed and transported to a laboratory per instructions in the laboratory manual."}, "[2]": {"system": "pediatric patient with genetic confirmation of ALGS", "excerpt": "The ileal bile acid transporter (IBAT) is a regulator of the enterohepatic bile acid circulation (Karpen et al.). Given the central feature of cholestasis in ALGS and the role of IBAT in bile acid homeostasis, IBAT inhibitors may help alleviate symptoms of ALGS. The IBAT inhibitor odevixibat is indicated for treatment of pruritus in patients ≥3 months old with progressive familial intrahepatic cholestasis (PFIC), another pediatric cholestatic liver disease, in the US and for treatment of PFIC in patients aged ≥6 months in the European Union.\nThe patient was referred to specialist care […]. […] […], a liver biopsy was performed.\nDuring this clinical course, the patient received UDCA (15 mg/kg body weight) and naltrexone (1 mg/kg/day), treatments that were pursued according to German treatment guidelines and following discussions among the care team and with the patient's parents."}, "Solubility in water": {"test": "Solubility in water", "assay_type": "physicochemical", "details": "pH 7, 37° C.", "excerpt": "It is desirable that the use of organic solvents in the preparation of the formulation is avoided. In some embodiments, water is used as the solvent for the preparation of the formulation. […] Because of this low solubility in water, aqueous suspensions of odevixibat can contain larger agglomerates of odevixibat, which may lead to an uneven distribution of the active pharmaceutical ingredient on the cores, i.e., the cores may contain different amounts of odevixibat, which in turn impacts dose uniformity. Accordingly, in some embodiments, the aqueous suspension of odevixibat is homogeneous. In some embodiments, a homogeneous aqueous suspension of odevixibat is sprayed onto the cores."}, "[3]": {"system": "patients with Alagille syndrome (ALGS)", "test": "ASSERT: safety, treatment-emergent adverse events", "assay_type": "in vivo, human", "excerpt": "Safety. The primary safety analysis for this study included the incidence of total treatment-emergent adverse events (AEs) and treatment-emergent adverse events (TEAEs) categorized by causality, severity, and seriousness assessments made by the investigator by comparing study drug exposure to placebo. Other safety assessments included physical examinations, concomitant medications, vital signs, laboratory tests, and liver ultrasound and elastography."}, "[4]": {"details": "baseline, before treatment, n=35"}, "[5]": {"details": "baseline, before treatment, patients >10 kg"}, "[6]": {"details": "week 24, 120 μg/kg/day, patients >10 kg"}},
  "note": "Entries after “also recorded” stand apart in the source; their conditions may differ. Read-outs that look alike come from different tables or passages of the source.",
  "data": [
    {"smiles": "CCCCC1(CCCC)CN(c2ccccc2)c2cc(SC)c(OCC(=O)N[C@@H](C(=O)N[C@@H](CC)C(=O)O)c3ccc(O)cc3)cc2S(=O)(=O)N1", "note": "[odevixibat, 1,1-dioxo-3,3-dibutyl-5-phenyl-7-methylthio-8-(N-{(R)-α-[N-((S)-1-carboxypropyl)carbamoyl]-4-hydroxybenzyl}carbamoylmethoxy)-2,3,4,5-tetrahydro-1,2,5-benzothiadiazepine]", "values": [
      {"measurement": "GGT, LS mean (SE) change from baseline to week 24", "setting": "[1]; 120 μg/kg/day, n=35", "result": "100 (44) U/L"},
      {"measurement": "Serum ALT, LS mean (SE) change from baseline to week 24", "setting": "[1]; 120 μg/kg/day, n=35", "result": "66 (14) U/L"},
      {"measurement": "Serum AST, LS mean (SE) change from baseline to week 24", "setting": "[1]; 120 μg/kg/day, n=35", "result": "54 (15) U/L"},
      {"measurement": "Total bilirubin, LS mean (SE) change from baseline to week 24", "setting": "[1]; 120 μg/kg/day, n=35", "result": "1 (3) μmol/L"},
      {"measurement": "Total cholesterol, LS mean (SE) change from baseline to week 24", "setting": "[1]; 120 μg/kg/day, n=35", "result": "−1 (1) mmol/L"},
      {"measurement": "Autotaxin, Mean (SD) change from baseline to week 24", "setting": "[1]; 120 μg/kg/day, patients >10 kg", "result": "−414 (439) ng/mL"},
      {"measurement": "C4, Mean (SD) change from baseline to week 24", "setting": "[1]; 120 μg/kg/day, patients >10 kg", "result": "12 (12) ng/mL"},
      {"measurement": "GGT, Mean (SD) at baseline", "setting": "[1]; [4]", "result": "366 (211) U/L"},
      {"measurement": "Serum ALT, Mean (SD) at baseline", "setting": "[1]; [4]", "result": "186 (83) U/L"},
      {"measurement": "Serum AST, Mean (SD) at baseline", "setting": "[1]; [4]", "result": "170 (81) U/L"},
      {"measurement": "Total bilirubin, Mean (SD) at baseline", "setting": "[1]; [4]", "result": "52 (43) μmol/L"},
      {"measurement": "Total cholesterol, Mean (SD) at baseline", "setting": "[1]; [4]", "result": "8 (2) mmol/L"},
      {"measurement": "Autotaxin, Mean (SD) at baseline", "setting": "[1]; [5]", "result": "1846 (540) ng/mL"},
      {"measurement": "C4, Mean (SD) at baseline", "setting": "[1]; [5]", "result": "6 (6) ng/mL"},
      {"measurement": "patients with post-treatment changes in Total Bilirubin (≥3×BL) concurrently with ALT (≥2×BL) (Hy's Law / drug induced liver injury cases)", "setting": "[1]; post-baseline, 24 weeks", "result": "No patient"},
      {"measurement": "GGT, Mean (SD) at week 24", "setting": "[1]; week 24, 120 μg/kg/day, n=35", "result": "460 (270) U/L"},
      {"measurement": "Serum ALT, Mean (SD) at week 24", "setting": "[1]; week 24, 120 μg/kg/day, n=35", "result": "245 (121) U/L"},
      {"measurement": "Serum AST, Mean (SD) at week 24", "setting": "[1]; week 24, 120 μg/kg/day, n=35", "result": "217 (131) U/L"},
      {"measurement": "Total bilirubin, Mean (SD) at week 24", "setting": "[1]; week 24, 120 μg/kg/day, n=35", "result": "53 (42) μmol/L"},
      {"measurement": "Total cholesterol, Mean (SD) at week 24", "setting": "[1]; week 24, 120 μg/kg/day, n=35", "result": "7 (2) mmol/L"},
      {"measurement": "Autotaxin, Mean (SD) at week 24", "setting": "[1]; [6]", "result": "1452 (440) ng/mL"},
      {"measurement": "C4, Mean (SD) at week 24", "setting": "[1]; [6]", "result": "19 (13) ng/mL"},
      {"measurement": "effect of dosage change on sBAs", "setting": "[2]; 30 μg/kg/day, September to October 2021", "result": "associated with an increase in sBAs"},
      {"measurement": "drop in sBAs", "setting": "[2]; Apr. 27, 2021 to May 31, 2021, 120 μg/kg/day started May 19, 2021", "result": "approximately 90%"},
      {"measurement": "sBAs after start of odevixibat", "setting": "[2]; May 31, 2021, from 700 μmol/L on Apr. 27, 2021, 120 μg/kg/day", "result": 69, "unit": "µmol/L"},
      {"measurement": "bowel movements improved after", "setting": "[2]; after starting odevixibat", "result": 1, "unit": "week"},
      {"measurement": "pruritus almost entirely disappeared within", "setting": "[2]; after starting odevixibat", "result": "≤ 2", "unit": "weeks"},
      {"measurement": "pruritus stopped completely after", "setting": "[2]; after starting odevixibat", "result": 8, "unit": "months"},
      {"measurement": "effect of dosage change on sBAs", "setting": "[2]; back to 120 μg/kg/day in mid-December", "result": "corresponded with a drop in sBAs"},
      {"measurement": "adverse events", "setting": "[2]; in vivo", "result": "did not experience any adverse events"},
      {"measurement": "sBA levels reached the normal range after", "setting": "[2]; treatment duration", "result": 8, "unit": "months"},
      {"measurement": "solubility", "setting": "Solubility in water", "result": "~30", "unit": "µg/mL"},
      {"measurement": "tolerability", "setting": "[3]; 120 μg/kg/day over 24 weeks", "result": "generally well tolerated"},
      {"measurement": "deaths or TEAEs leading to study drug discontinuation", "setting": "[3]; 24 weeks", "result": "No deaths or treatment-emergent adverse events leading to study drug discontinuation; also recorded: no deaths or treatment-emergent adverse events (TEAEs) leading to discontinuation of treatment"},
      {"measurement": "incidence of COVID-19", "setting": "[3]; 24 weeks", "result": 14.3, "unit": "%"},
      {"measurement": "incidence of GI disorders", "setting": "[3]; 24 weeks", "result": 34, "unit": "%"},
      {"measurement": "incidence of abdominal pain (preferred terms abdominal pain and abdominal pain upper)", "setting": "[3]; 24 weeks", "result": 14, "unit": "%"},
      {"measurement": "incidence of bronchitis", "setting": "[3]; 24 weeks", "result": 8.6, "unit": "%"},
      {"measurement": "incidence of infections", "setting": "[3]; 24 weeks", "result": 51.4, "unit": "%"},
      {"measurement": "incidence of liver-related events", "setting": "[3]; 24 weeks", "result": 11, "unit": "%"},
      {"measurement": "incidence of respiratory tract infection", "setting": "[3]; 24 weeks", "result": 8.6, "unit": "%"},
      {"measurement": "incidence of upper respiratory tract infection", "setting": "[3]; 24 weeks", "result": 8.6, "unit": "%"},
      {"measurement": "incidence of SAEs", "setting": "[3]; 24 weeks, 120 μg/kg/day", "result": 14.3, "unit": "%"},
      {"measurement": "incidence of drug-related TEAE diarrhea", "setting": "[3]; 24 weeks, 120 μg/kg/day", "result": 11, "unit": "%"},
      {"measurement": "incidence of drug-related TEAEs", "setting": "[3]; 24 weeks, 120 μg/kg/day", "result": 23, "unit": "%"},
      {"measurement": "incidence of treatment-emergent diarrhea", "setting": "[3]; 24 weeks, 120 μg/kg/day", "result": 29, "unit": "%"},
      {"measurement": "patients with ALT and AST elevations ≥3× baseline without concurrent (within 30 days) elevations in total bilirubin ≥2× baseline", "setting": "[3]; 24 weeks, n=35", "result": 2, "unit": "patients"},
      {"measurement": "serious infections reported", "setting": "[3]; 24 weeks, n=35", "result": 3, "unit": "patients"},
      {"measurement": "patients who experienced at least one TEAE", "setting": "[3]; 26 of 35, 24 weeks, 120 μg/kg/day", "result": 74, "unit": "%"},
      {"measurement": "liver decompensation events", "setting": "[3]; during the study", "result": "no cases"}
    ]}
  ]
}
